{"source": "patent US20220193126A1", "about": "“METHODS OF TREATING IMBALANCE OF PLASMA LIPIDS LEVEL AND FATTY LIVER WITH M2C MACROPHAGES” (National Pingtung University of Science and Technology, priority 2020, published 2022)", "key": {"[1]": {"test_system": "bone marrow derived macrophages (BMDM)", "assay": "Induction of M2C macrophage polarization by baicalin (morphology, microscope images)", "type": "cell-based, mice (C57BL/6J)", "conditions": "50 μM Baicalin for 24 hours, vs placebo-treated group (M-CSF) spindle shape", "experimental": "The bone marrow was flushed out from the femurs of mice (C57BL/6J, 8-week-old to 20-week-old, from National Laboratory Animal Center in Taipei, Taiwan) with phosphate-buffered saline (PBS) containing BSA 0.5%. The peripheral blood or bone marrow flushing fluid were layered with Ficoll-Hypaque (GE Healthcare, Uppsala, Sweden) and centrifuged at 400×g for 40 minutes at 18° C. to isolate the mononuclear cell of peripheral blood and bone marrow. The interphase layer containing mononuclear cell was washed with PBS and centrifuged for 10 minutes at 100×g, 18° C. twice. Plate mononuclear cells in dish culture with RPM 1640 supplemented with 10% FBS (fetal bovine serum) and 50 ng/ml recombinant mouse M-CSF (PeproTech, British) at 37° C. and 5% CO2 for 7 days to induce the mononuclear cells to differentiate into macrophage. On the next day of the 7th day of M-CSF treatment, 5×10^5 cells of bone marrow derived macrophages (BMDM) cells were plated in RPMI 1640 (10% FBS) and incubated overnight. After overnight incubation, the BMDM cells were incubated in RPMI 1640 (10% FBS) supplemented with 50 μM Baicalin for 24 hours to induce the BMDM cells to polarize into […] macrophage."}, "MERTK": {"test_system": "MERTK", "assay": "Flow cytometry confirmation of MERTK expression on M2C macrophages", "type": "cell-based, mouse", "conditions": "baicalin-treated vs placebo-treated macrophages", "experimental": "The bone marrow was flushed out from the femurs of mice (C57BL/6J, 8-week-old to 20-week-old, from National Laboratory Animal Center in Taipei, Taiwan) with phosphate-buffered saline (PBS) containing BSA 0.5%. The peripheral blood or bone marrow flushing fluid were layered with Ficoll-Hypaque (GE Healthcare, Uppsala, Sweden) and centrifuged at 400×g for 40 minutes at 18° C. to isolate the mononuclear cell of peripheral blood and bone marrow. The interphase layer containing mononuclear cell was washed with PBS and centrifuged for 10 minutes at 100×g, 18° C. twice. Plate mononuclear cells in dish culture with RPM 1640 supplemented with 10% FBS (fetal bovine serum) and 50 ng/ml recombinant mouse M-CSF (PeproTech, British) at 37° C. and 5% CO2 for 7 days to induce the mononuclear cells to differentiate into macrophage. On the next day of the 7th day of M-CSF treatment, 5×10^5 cells of bone marrow derived macrophages (BMDM) cells were plated in RPMI 1640 (10% FBS) and incubated overnight. […]\n1×10^6 cells of the M2C macrophages induced by baicalin were analyzed by flow cytometry to confirm whether the M2C macrophages express MERTK. Fluorescence-labelled anti-mouse antibodies (Biolegend, the U.S.A.), FITC-anti-CD 11b and PE-anti-MERTK, are used in the analysis. […] After removing supernatant, the sample was dissolved in 1 ml of PBS and analyzed by flow cytometry."}}, "data": [{"smiles": "O=C(O)[C@H]1O[C@@H](Oc2cc3oc(-c4ccccc4)cc(=O)c3c(O)c2O)[C@H](O)[C@@H](O)[C@@H]1O", "note": "[baicalin]", "values": [{"measurement": "morphology of the macrophages", "setting": "[1]", "value": "basically round shape"}, {"measurement": "average MERTK expression level on single cell (mean fluorescence intensity, MFI)", "setting": "MERTK", "value": "significantly enhanced"}]}]}
